Where two headings read alike, the source gives them in different places.
Tests used:
[1] = system: EHV-4 405/76 reference strain; test: RTCA; assay type: cell-based, Equid herpesvirus 4; conditions: for AUCn: area under normalized Cell Index curves, 0-120 hpi, EHV-4-infected E. Derm cells
[2] = Cytotoxicity by impedance using RTCA; conditions: horse, E. Derm cells
[3] = system: EHV-4 405/76 reference strain; conditions: ratio of CC50 to EC50 obtained by qPCR
[4] = system: EHV-4 405/76 reference strain; test: microbe, parasite or virus in culture
[5] = system: EHV-4 405/76 reference strain; test: microbe, parasite or virus in culture; remark: listed apart in the source
[6] = Cytotoxicity by CellTiter-Glo; conditions: horse, E. Derm cells
[7] = system: EHV-4 405/76 reference strain; conditions: ratio of CC50 to EC50 obtained by RTCA
in vitro [8] = conditions: horse
in vitro [9] = conditions: horse; remark: listed apart in the source
[10] = Equid alphaherpesvirus 4, read-out: RTCA EC50 (µM ± S.D)
[11] = Equid alphaherpesvirus 4, read-out: RTCA EC50 (µg/mL ± S.D)
[12] = Equid alphaherpesvirus 4, read-out: qPCR EC50 (µM ± S.D)
[13] = Equid alphaherpesvirus 4, read-out: qPCR EC50 (µg/mL ± S.D)
[14] = Equid alphaherpesvirus 4, 120 h, read-out: %AUCn

Compound	AUCn ([1]; 0.4 µM)	AUCn ([1]; 2 µM)	AUCn ([1]; 10 µM)	AUCn ([1]; 50 µM)	further results
O=c1[nH]c(=O)n([C@H]2C[C@H](O)[C@@H](CO)O2)cc1/C=C/Br [Brivudine]	28.13	30.37	31.74	36.82	–
Cc1cn([C@@H]2C[C@@H](O)[C@H](CO)O2)c(=O)[nH]c1=O [Telbivudine]	30.51	35.43	31.31	39.04	–
NCCCC(N)(C(=O)O)C(F)F (centres unmarked) [Eflornithin (dfmo), Eflornithin]	44.63	32.10	30.27	32.46	–
Nc1nc2c(ncn2CCC(CO)CO)c(=O)[nH]1 [Penciclovir]	36.54	33.23	30.15	42.37	–
Cc1nc(N(C)C(=O)Cc2ccc(-c3ccccn3)cc2)sc1S(N)(=O)=O [BAY 57-1293, pritelivir]	27.43	27.62	44.70	145.59	CC50 [2]: > 50 µM; SI (CC50 CellTiter-Glo/EC50 qPCR) [3]: >15.11; EC50 [4, 10]: 17.8 ± 1.2 µM; EC50 [4, 11]: 7.15 ± 0.48 µg/mL; EC50 [5, 12]: 3.31 ± 0.89 µM; EC50 [5, 13]: 1.33 ± 0.36 µg/mL; CC50 [6]: > 50 µM; Si (CC50/EC50, RTCA) [7]: >2.81
Nc1nc(=O)n([C@@H]2CS[C@H](CO)O2)cc1F [Emtricitabine]	36.81	35.47	34.12	37.28	–
COc1nc(N)nc2c1ncn2[C@@H]1O[C@H](CO)[C@@H](O)[C@@H]1O [Nelarabine]	33.26	32.33	30.63	40.34	–
CC(C)(C)C(=O)OCOP(=O)(COCCn1cnc2c(N)ncnc21)OCOC(=O)C(C)(C)C [Adefovir dipivoxil]	99.92	93.75	73.47	39.70	–
CC(=O)OCC(CCn1cnc2cnc(N)nc21)COC(C)=O [Famciclovir]	39.12	34.29	36.03	37.57	–
CCOC(=O)c1c(CSc2ccccc2)n(C)c2cc(Br)c(O)c(CN(C)C)c12 [Arbidol]	31.88	39.33	37.59	35.06	–
CC(C)n1c(/C=C/C(O)CC(O)CC(=O)O)c(-c2ccc(F)cc2)c2ccccc21 (centres unmarked) [Fluvastatin]	33.08	16.45	11.66	13.86	–
CC(C)OC(=O)[C@H](C)N[P@](=O)(OC[C@H]1O[C@@H](n2ccc(=O)[nH]c2=O)[C@](C)(F)[C@@H]1O)Oc1ccccc1 [Sofosbuvir]	35.31	33.28	34.01	35.76	–
Nc1ncnc2c1ncn2[C@@H]1O[C@H](CO)[C@@H](O)[C@@H]1O [Vidarabine]	41.3	35.7	48.7	71.5	CC50 (in vitro [8]): > 50 µM; EC50 [4, 10]: 17 ± 4.5 µM; EC50 [4, 11]: 4.85 ± 1.28 µg/mL; CC50 (in vitro [9]): > 50 µM; EC50 [5, 12]: 13.7 ± 1.92 µM; EC50 [5, 13]: 3.91 ± 0.55 µg/mL; Si (CC50/EC50, RTCA) [7]: >2.94
O=c1c(-c2ccc(O)cc2)coc2cc(O)cc(O)c12 [Genistein]	11.7	12.8	13.3	11.8	activation at 0.4 µM [1, 14]: -17.5%; activation at 2 µM [1, 14]: -9.65%; activation at 10 µM [1, 14]: -6.34%; activation at 50 µM [1, 14]: -16.7%
Nc1nc(O)c2ncn(COC(CO)CO)c2n1 [Ganciclovir]	57.9	74.3	116.3	138.7	CC50 (in vitro [8]): > 50 µM; SI (CC50 CellTiter-Glo/EC50 qPCR) [3]: >37.88; EC50 [4, 10]: 4.05 ± 0.22 µM; EC50 [4, 11]: 1.03 ± 0.06 µg/mL; CC50 (in vitro [9]): > 50 µM; EC50 [5, 12]: 1.32 ± 1.06 µM; EC50 [5, 13]: 0.34 ± 0.27 µg/mL; Si (CC50/EC50, RTCA) [7]: >12.35
NC(=O)c1nc(F)c[nH]c1=O [Favipiravir]	30.35	41.18	37.23	74.44	–
C[C@H](CCCC(C)(C)O)[C@H]1CC[C@H]2[C@@H]3CC=C4C[C@@H](O)CC[C@]4(C)[C@H]3CC[C@]12C [25-hydroxycholesterol]	39.29	34.81	29.79	31.86	–
O=c1[nH]c(=O)n([C@H]2C[C@H](O)[C@@H](CO)O2)cc1I [Idoxuridine]	36.8	30.6	63.0	143.7	CC50 (in vitro [8]): > 50 µM; SI (CC50 CellTiter-Glo/EC50 qPCR) [3]: >6.68; EC50 [4, 10]: 33.8 ± 15.8 µM; EC50 [4, 11]: 11.9 ± 5.61 µg/mL; CC50 (in vitro [9]): > 50 µM; EC50 [5, 12]: 7.49 ± 1 µM; EC50 [5, 13]: 2.65 ± 0.35 µg/mL; Si (CC50/EC50, RTCA) [7]: >1.48
